Results on four molecules are retold here after the NIST ThermoML archive (doi:10.1016/j.fluid.2014.06.015).

Data set [1] is described as follows: refractive index (Na D-line) (dimensionless). The note with it: 298.15 K; 101.33 kPa; Liquid; Standard Abbe refractometry.
For data set [2] the following is noted: 298.15 K; 101.33 kPa; Liquid; Vibrating tube method.

± gives the expanded uncertainty stated by the source.

As to `CCC(C)(C)O` [2-methylbutan-2-ol], the refractive index (in general, a measure of how strongly the sample bends light) in data set [1] amounted to 1.4026 ± 0.0005. Further, the mass density (commonly mass per unit of volume) in data set [2] is listed as 804.21 ± 0.24 kg/m3. For `CCC(C)O` (configuration not stated) [butan-2-ol], in that order: 1.3936 ± 0.0005 and 802.35 ± 0.13 kg/m3. In the case of `OCC(O)CO` [glycerol], the refractive index in data set [1] is on record as 1.4726 ± 0.0005. The mass density in data set [2] came to 1258.52 ± 0.22 kg/m3. On to `O` [water], for which, in data set [1], the refractive index came to 1.3325 ± 0.0005.
